Data from patent publication US20080131511A1, “Pharmaceutical Composition for Treatment of Tear and Salivary Fluid Drying” (Astellas Pharma, Inc., priority 2004, published 2008).

How the values were obtained:
Format in all cases: in vivo, mouse (male Balb/c)
[1] = system: ornithine decarboxylase (ODC) activity of extra-orbital lacrimal gland; assay: Ornithine decarboxylase activity of extra-orbital lacrimal gland, subcutaneous continuous administration; conditions: mice; for Glandular cell growth Lacrimal gland: ODC activity 10 hours after implantation
Procedure: (§1) Male Balb/c mice were used in the test.
(§2) The compound A was dissolved in physiological saline to a concentration of 0.625, 1.25, 2.5, 5.0, 10 or 20 mg/200 μl, and filled each pump (Alzet mini-osmotic pump 2001D, 8 μl/h, 1 day; DURECT Corporation) with about 200 μl portions It means, that is, each pump releases at a rate of 0.025, 0.05, 0.1, 0.2, 0.4 or 0.8 mg compound A/h, respectively. About 5 mm of dorsal epidermis of a mouse anesthetized with diethyl ether was incised, the osmotic pump already filled with the compound A was subcutaneously implanted, and then the skin was stitched. Secreted amounts of salivary and tear fluid and sweating were periodically measured from just before the implantation of pump until 32 hours after the administration. The ornithine decarboxylase activity was measured 10 hours after the implantation.
Pilocarpine was dissolved in physiological saline to a concentration of 0.039, 0.078, 0.16 or 0.31 mg/200 μl, or cevimeline to a concentration of 0.16, 0.31, 0.63 or 1.3 mg/200 μl, and filled the osmotic pump (Alzet mini-osmotic pump 2001 D, 8 μl/h, 1 day; DURECT Corporation) with about 200 μl portions. It means, that is, each pump releases at a rate of 0.00156, 0.00312, 0.0064 or 0.0124 mg/h (pilocarpine) or 0.0064, 0.0124, 0.0252 or 0.05 mg/h (cevimeline). About 5 mm of dorsal epidermis of a mouse anesthetized with diethyl ether was incised, the osmotic pump already filled with pilocarpine or cevimeline was subcutaneously implanted, and then the skin was stitched. Secreted amounts of salivary and tear fluid and sweating were periodically measured from just before the implantation of pump until 32 hours after the administration. The ornithine decarboxylase activity was measured 10 hours after the implantation.
Thus, it can be easily analogized that the ODC activity becomes a useful index of cell growth and function of the exocrine gland. Accordingly, the ability of each drug to activate glandular tissue was evaluated by measuring ODC activity of parotid salivary gland and extra-orbital lacrimal gland.
The amount of ^14CO2 formed from L-^14C-ornithine was used as the index of ODC activity.
A mouse anesthetized with diethyl ether was sacrificed by bleeding, and left and right parotid salivary glands and extra-orbital lacrimal glands were isolated. After removing the attached connective tissue and fat, the isolated glandular tissues homogenized in 1.5 ml of a homogenate buffer (25 mM Tris-HCl buffer (pH 7.4) containing 0.1 mM ethylenediaminetetraacetic acid, 0.4 mM pyridoxal phosphate, 5 mM dithiothreitol and 0.1% Brij 35®) using a Potter type homogenizer and then centrifuged at 4° C., 15,000 g for 30 minutes, and the supernatant was used as the enzyme fraction. Reaction of the enzyme and substrate was carried out by adding 100 μl of a substrate solution (the homogenate buffer containing 300 μM DL-ornithine and 5 μCi L-^14C-ornithine) to 900 μl of the enzyme liquid whose protein concentration had been adjusted to 2.5 mg/ml and incubating at 37° C. for 1 hour in a sealed tube, and the reaction was terminated by the addition of 100 μl of 2 M H2SO4. The ^14CO2 generated by the reaction was captured by 150 μl of 1 N NaOH soaked in a glass filter. Radioactivity of the ^14CO2 captured on the glass filter was detected using a liquid scintillation counter. The enzyme activity (pmol ^14CO2/mg protein/hour) was calculated from the measured results.
(§3) All of the test results were expressed as fold increases of the reactions of the drug-administered group versus those of the vehicle-administered group, and comparison between the drug-administered groups and the vehicle-administered group was carried out using Dunnett's t-test. P<0.05 was considered significant. Results

sweat gland = assay: Sweating (activated sweat glands, AUC) during subcutaneous continuous administration (osmotic pump); conditions: for sweating: AUC of activated sweat glands
Procedure: as §1
as §2, with “implantation. […]” for “implantation.”
The footpad of right hind paw of a mouse anesthetized with diethyl ether was wiped with absorbent cotton, and then 20 μl of each of 5 mg/ml iodine-ethanol solution and 50 mg/ml starch-mineral oil suspension was applied thereto. The number of black spots on footpad was counted and used as the number of activated sweat glands. In the case of the subcutaneous bolus administration test, the number of activated sweat glands 10 minutes after the administration of compound A was measured. In the case of the subcutaneous continuous administration, area under the number of activated sweat glands-versus-time curve (AUC) was calculated.
as §3

[2] = system: ornithine decarboxylase (ODC) activity of extra-orbital lacrimal gland; assay: Ornithine decarboxylase activity of extra-orbital lacrimal gland after subcutaneous bolus administration; conditions: mice
Procedure: Male Balb/c mice were used in the test. […] Also, the growth acceleration action was measured 6 hours after the administration. […] Also, the growth acceleration action was measured 6 hours after the administration. […] Thus, it can be easily analogized that the ODC activity becomes a useful index of cell growth and function of the exocrine gland. Accordingly, the ability of each drug to activate glandular tissue was evaluated by measuring ODC activity of parotid salivary gland and extra-orbital lacrimal gland. The amount of ^14CO2 formed from L-^14C-ornithine was used as the index of ODC activity. A mouse anesthetized with diethyl ether was sacrificed by bleeding, and left and right parotid salivary glands and extra-orbital lacrimal glands were isolated. After removing the attached connective tissue and fat, the isolated glandular tissues homogenized in 1.5 ml of a homogenate buffer (25 mM Tris-HCl buffer (pH 7.4) containing 0.1 mM ethylenediaminetetraacetic acid, 0.4 mM pyridoxal phosphate, 5 mM dithiothreitol and 0.1% Brij 35®) using a Potter type homogenizer and then centrifuged at 4° C., 15,000 g for 30 minutes, and the supernatant was used as the enzyme fraction. […] The ^14CO2 generated by the reaction was captured by 150 μl of 1 N NaOH soaked in a glass filter. Radioactivity of the ^14CO2 captured on the glass filter was detected using a liquid scintillation counter. The enzyme activity (pmol ^14CO2/mg protein/hour) was calculated from the measured results. All of the test results were expressed as fold increases of the reactions of the drug-administered group versus those of the vehicle-administered group, and comparison between the drug-administered groups and the vehicle-administered group was carried out using Dunnett's t-test. P<0.05 was considered significant. Results

[3] = mice, s.c. continuous administration
[4] = male, Balb/c, mouse, in vivo, sc

C=C1CC2(CCN(C)CC2)O[C@H]1C [compound A, (−)-(S)-2,8-dimethyl-3-methylene-1-oxa-8-azaspiro[4.5]decane]
Glandular cell growth Lacrimal gland ([1]; s.c. osmotic pump 1.25 mg (0.05 mg/h)): 3.3 ± 1.2 fold increase vs. the vehicle group
Glandular cell growth Lacrimal gland ([1]; s.c. osmotic pump 2.5 mg (0.1 mg/h)): 6.7 ± 0.90 fold increase vs. the vehicle group
Glandular cell growth Lacrimal gland ([1]; s.c. osmotic pump 5 mg (0.2 mg/h)): 9.2 ± 1.4 fold increase vs. the vehicle group
Glandular cell growth Lacrimal gland ([1]; s.c. osmotic pump 10 mg (0.4 mg/h)): 7.1 ± 1.2 fold increase vs. the vehicle group
dose at which sweating acceleration action was found (sweat gland; [3]): 20 mg
sweating acceleration dose relative to dose for secretion acceleration (sweat gland; [3]): 8 times
dose up to which sweating acceleration action was not found (sweat gland; mice, s.c. continuous administration, throughout the test period): 10 mg
sweating (sweat gland; mice, s.c. osmotic pump 0.63 mg (0.025 mg/h)): 0.85 ± 0.06 fold increase vs. the vehicle group
sweating (sweat gland; mice, s.c. osmotic pump 1.25 mg (0.05 mg/h)): 0.84 ± 0.06 fold increase vs. the vehicle group
sweating (sweat gland; mice, s.c. osmotic pump 2.5 mg (0.1 mg/h)): 0.89 ± 0.05 fold increase vs. the vehicle group
sweating (sweat gland; mice, s.c. osmotic pump 5 mg (0.2 mg/h)): 0.88 ± 0.05 fold increase vs. the vehicle group
sweating (sweat gland; mice, s.c. osmotic pump 10 mg (0.4 mg/h)): 0.90 ± 0.04 fold increase vs. the vehicle group
sweating (sweat gland; mice, s.c. osmotic pump 20 mg (0.8 mg/h)): 1.7 ± 0.07 fold increase vs. the vehicle group
Glandular cell growth Lacrimal gland ([2]; s.c. bolus 10 mg/kg, ODC activity 6 hours after administration): 0.99 ± 0.24 fold increase vs. the vehicle group
Glandular cell growth Lacrimal gland ([2]; s.c. bolus 30 mg/kg, ODC activity 6 hours after administration): 2.2 ± 0.43 fold increase vs. the vehicle group
Glandular cell growth Lacrimal gland ([2]; s.c. bolus 100 mg/kg, ODC activity 6 hours after administration): 2.3 ± 0.07 fold increase vs. the vehicle group

CC1OC2(CS1)CN1CCC2CC1 (stereo not drawn) [cevimeline]
Glandular cell growth Lacrimal gland ([1]; s.c. osmotic pump 0.63 mg (0.0252 mg/h)): 1.4 ± 0.28 fold increase vs. the solvent group
Glandular cell growth Lacrimal gland ([1]; s.c. osmotic pump 1.25 (0.05 mg/h)): 1.3 ± 0.70 fold increase vs. the solvent group
dose at which sweating acceleration action was found (sweat gland; [4]): 1.25 mg
sweating acceleration dose relative to dose for secretion acceleration (sweat gland; [4]): 2 times
Glandular cell growth Lacrimal gland ([2]; s.c. bolus 10 mg/kg, ODC activity 6 hours after administration (Table 4)): 1.2 ± 0.90 fold increase vs. the vehicle group
Glandular cell growth Lacrimal gland ([2]; s.c. bolus 30 mg/kg, ODC activity 6 hours after administration (Table 4)): 1.2 ± 0.52 fold increase vs. the vehicle group
Glandular cell growth Lacrimal gland ([2]; s.c. bolus 100 mg/kg, ODC activity 6 hours after administration (Table 4)): 1.7 ± 0.79 fold increase vs. the vehicle group

CC[C@@H]1C(=O)OC[C@@H]1Cc1cncn1C [pilocarpine]
dose at which ODC activity increasing action of lacrimal gland cell was observed ([1]; s.c. continuous administration): 0.31 mg
Glandular cell growth Lacrimal gland ([1]; s.c. osmotic pump 0.16 mg (0.0064 mg/h)): 1.4 ± 0.33 fold increase vs. vehicle group
Glandular cell growth Lacrimal gland ([1]; s.c. osmotic pump 0.31 mg (0.0124 mg/h)): 2.0 ± 0.28 fold increase vs. vehicle group
dose at which sweating acceleration action was found (sweat gland; [4]): 0.31 mg
Glandular cell growth Lacrimal gland ([2]; s.c. bolus 1 mg/kg, ODC activity 6 hours after administration): 0.69 ± 0.09 fold increase vs. the vehicle group
Glandular cell growth Lacrimal gland ([2]; s.c. bolus 3 mg/kg, ODC activity 6 hours after administration): 0.95 ± 0.23 fold increase vs. the vehicle group
Glandular cell growth Lacrimal gland ([2]; s.c. bolus 10 mg/kg, ODC activity 6 hours after administration (Table 3)): 2.8 ± 0.61 fold increase vs. the vehicle group
